Publication PMC8955265, “Systematic Discovery of FBXW7-Binding Phosphodegrons Highlights Mitogen-Activated Protein Kinases as Important Regulators of Intracellular Protein Levels” (International Journal of Molecular Sciences, 2022)
Where a SMILES comes first, the peptide text is derived from it. [ ]: non-standard residue; d: D form. pT = C[C@@H](OP(=O)(O)O)[C@H](N)C(=O)O; pS = N[C@@H](COP(=O)(O)O)C(=O)O

How the values were obtained:
Skp1-FBXW7 complex = target: T1, Skp1-FBXW7 complex (Homo sapiens, UniProt P63208+Q969H0); test: Fluorescence polarization competitive protein-peptide binding assay; details: for binding affinity to purified FBXW7 in vitro: FP based quantitative in vitro binding assay, result in words; for Kd: FP competition of unlabeled peptide against 50 nM CF-labeled CCNE peptide at ~60-80% complex formation, 20 mM Tris pH 8.0, 100 mM NaCl, 0.05% Brij35P, 2 mM TCEP, value with error
T1 construct: human FBXW7 (263-707) with an N-terminal hexa-histidine (His6) tag; His6 (N, cleaved yes); made in house; host or cells: E. coli Rosetta (DE3)
Description: Truncated Skp1 (1-149) and human FBXW7 (263-707) with an N-terminal hexa-histidine (His6) tag were cloned into a bicistronic plasmid (pMG950) and were co-expressed in E. coli Rosetta (DE3) strain. The Skp1-FBXW7 complex was purified using affinity, anion exchange, and gel filtration chromatography. The DNA expression plasmid was transformed into E. coli Rosetta (DE3) strain and grown in LB until OD600 = 0.5, protein expression was induced with 100 µM isopropyl-β-d-1-thigalatopyaranoside (IPTG) overnight at 18 °C. The cell pellet was lysed, and the recombinant protein was purified using Ni-NTA agarose beads. Before further purification the His6-tag was removed by using the TEV protease and then the protein complex was further purified using anion exchange chromatography twice, first with a Resource Q and then with a Mono Q column (pH = 8). Finally, the complex was subjected to size-exclusion chromatography in 20 mM Tris, pH = 8, 150 mM NaCl, and 1 mM DTT using a Superdex200 10/300 column (GE Healthcare, Chicago, IL, USA). The eluted fractions were pooled together and were supplemented with 10% glycerol and 2 mM TCEP before concentration and storage.
Fluoresce polarization (FP) based protein–peptide binding affinity measurements were carried out using 50 nM carboxyfluorescein (CF) labeled CCNE peptide (CF-PSGLLpTPPQpSGKKQ) and data were fit to a direct or a competitive binding equation using OriginPro 2018 as described earlier. For the direct measurements the concentration of Skp1-FBXW7 complex was increased in a titration experiment and then the binding affinity (Ki) of the unlabeled peptide was determined by titrating the Skp1-FBXW7: labelled peptide complex sample, at a concentration corresponding to ~60–80% complex formation, with increasing amounts of unlabeled peptide. All the FP measurements were performed in 20 mM Tris (pH 8.0), 100 mM NaCl, 0.05% Brij35P, and 2 mM TCEP using a Cytation^TM 3 (BioTek Instruments) plate reader (384-well plates in 20 µL binding reaction volume). Peptides were chemically synthesized and were ordered from GenScript.

FBXW7 = test: Ratiometric EGFP/DsRed protein degradation assay with degron probes; assay type: cell-based, human; details: putative degron motif in EGFP-fused probe with AAKG2 MAPK docking motif; HEK293T, 48 h after transfection, EGFP/DsRed ratio with and without FBXW7 plasmid; search cycles 1-4
Text: In order to be able to test putative phosphodegron motifs, a ratiometric protein level monitoring method was adapted to monitor MAPK controlled FBXW7 mediated protein degradation. Briefly, intact DsRed and an EGFP-chimera were expressed in HEK293T cells in equal amounts from an expression plasmid, giving an EGFP/DsRed fluorescence ratio close to one under non-degrading conditions. EGFP was fused to a probe comprised of a putative degron sequence and a known MAPK binding docking motif. EGFP signal is expected to diminish faster than DsRed in cells with more FBXW7 if the probe responded to degradation.
We started out from an intentionally general consensus motif of FBXW7 degrons, inspired by the liberal [TS]P..[TS]P pattern defined for yeast Cdc4 substrates, and scanned the human disordered part of the proteome using SliMSearch4 (the disorder score cut-off was 0.4 and flank length was 5). In all, 22 motifs from this list were subjectively chosen and tested in the ratiometric degradation assay giving only 5 positives (see Supplementary Table S1). Based on the results of this first round, by taking information both from the identified positives and negatives, the consensus motif definition was narrowed to requiring a proline at P + 2, but motifs were allowed to have a phospho-mimicking residue (D or E) at P + 4 because it had been formerly reported that this second phosphorylatable residue may be replaced by aspartate or glutamate. […] In the third round, hydrophobic amino acids were more strictly required at positions −1/−2 and P − 1/2/3 positions were further narrowed and P + 4 position was relaxed based on the identified negatives, which gave a higher hit rate (4 out of 6). This third round gave functional motifs at a good rate, but the used motif definition was very restrictive compared to other known motifs. Finally, in the fourth round, we gave up using an optimal consensus and established the positional relaxation model. […] Hits on this final, most predictive list are presented in Supplementary Table S2. All entries were filtered for motif locations by UniProt annotations, discarding all enzyme-inaccessible (e.g., extracellular) instances. Motifs that had any overlapping PFAM domain indicated were manually assessed using the AlphaFold EBI website. Out of these, only motifs that were highly accessible and located outside of confidently predicted folded domains were kept. We also added kinase consensus compatibility to every motif and the number of experiments where phosphorylation could be detected from PhosphoSitePlus.
The chimera degron module was ordered from IDT as gene Block (gBlock). It consisted of a coiled coil dimerization motif (GCN4: EELLSKNYHLENEVARLKK) to increase sensitivity by allowing multivalent binding, a MAPK binding docking motif (AAKG2: KKNASQKRRSLRVHIPDL), and the CycECO degron motif. The motifs were separated by Gly-Ser-Asn linkers and the gBlock was designed so that the motifs could be easily changed by using unique sets of restriction endonucleases. The gBlock was sub-cloned into the Gateway pENTR4 entry plasmid (Thermo Fisher, Waltham, MA, USA) using restriction enzymes (SalI and NotI). The pENTR4-chimera and the destination plasmid (MSCV-CMV-DsRed-IRES-EGFP-DEST from Addgene; 41941), [28]) were subjected to gateway cloning using LR clonase II enzyme (Invitrogen) to obtain the first DsRed-EGFP-chimera DNA construct containing the cycECO degron. Oligonucleotides corresponding to different degron sequences and docking motifs were ligated into the DsRed-EGFP-chimera DNA construct. The list of all the oligonucleotides used for cloning is provided in Supplementary Table S3. pcDNA3-FLAG-FBXW7α was a kind gift from Michael Pagano (New York University). The FBXW7 arginine mutant (Arg mutant: R465C; R479Q; R505L) was created using two-step PCR and cloned into the pcDNA3-FLAG plasmid. […]

T1 sequence (Q969H0 263-707): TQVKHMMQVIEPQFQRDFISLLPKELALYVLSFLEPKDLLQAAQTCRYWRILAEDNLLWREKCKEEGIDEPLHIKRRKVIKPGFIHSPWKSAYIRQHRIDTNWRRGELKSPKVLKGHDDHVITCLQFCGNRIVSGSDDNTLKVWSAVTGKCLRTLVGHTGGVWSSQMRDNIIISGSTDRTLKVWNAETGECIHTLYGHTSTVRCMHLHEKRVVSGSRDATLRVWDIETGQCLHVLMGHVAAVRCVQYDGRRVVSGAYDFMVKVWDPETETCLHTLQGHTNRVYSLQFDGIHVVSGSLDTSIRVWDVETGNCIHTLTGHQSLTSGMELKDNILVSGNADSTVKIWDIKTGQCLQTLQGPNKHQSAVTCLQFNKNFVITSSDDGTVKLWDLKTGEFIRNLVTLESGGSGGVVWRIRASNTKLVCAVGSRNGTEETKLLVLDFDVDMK
T1 sequence (P63208 1-149 partner limits assumed): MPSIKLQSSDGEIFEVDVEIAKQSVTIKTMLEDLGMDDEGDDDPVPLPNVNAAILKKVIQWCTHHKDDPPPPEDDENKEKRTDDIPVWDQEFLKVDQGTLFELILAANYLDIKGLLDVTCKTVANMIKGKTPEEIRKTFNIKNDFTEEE

| Compound | binding affinity to purified FBXW7 in vitro (Skp1-FBXW7 complex) | Kd (Skp1-FBXW7 complex) | Outcome (FBXW7) |
| --- | --- | --- | --- |
| CC(C)C[C@H](NC(=O)[C@@H](NC(=O)[C@H](CO)NC(=O)[C@H](CC(N)=O)NC(=O)[C@@H](N)CO)C(C)C)C(=O)N[C@@H](CC(N)=O)C(=O)N[C@H](C(=O)N1CCC[C@H]1C(=O)N1CCC[C@H]1C(=O)N[C@H](C(=O)N[C@H](C(=O)N1CCC[C@H]1C(=O)N[C@@H](CCC(=O)O)C(=O)N[C@@H](CO)C(=O)N1CCC[C@H]1C(=O)O)[C@@H](C)OP(=O)(O)O)[C@@H](C)O)[C@@H](C)OP(=O)(O)O [ARID4B] (H-SNSVLN[pT]PPT[pT]PESP-OH) | low nanomolar | 17.7 ± 0.6 nM |  |
| TANLPPSPPPSPASEQT [MAP2, putative FBXW7 degron motif tested as EGFP-fused degradation probe] |  |  | Positive (tested positive, where +FBXW7/control protein level ratio was lower than 1) |
| TCPNSPSTPPSTPSPRV [SOS2, putative FBXW7 degron motif tested as EGFP-fused degradation probe] |  |  | Negative |
| TEPRSSPSPPPSPTEPE [CUX2, putative FBXW7 degron motif tested as EGFP-fused degradation probe] |  |  | Negative |
| TTVTPPGTPPMR [KSR2-b, putative FBXW7 degron motif tested as EGFP-fused degradation probe] |  |  | Negative |
| VAVSPTPPVSPEVRST [CEP164, putative FBXW7 degron motif tested as EGFP-fused degradation probe] |  |  | Negative |
| VKRTLPSPPPEEAHLP [BSN, putative FBXW7 degron motif tested as EGFP-fused degradation probe] |  |  | Negative |

The next lines start with results.

| binding affinity to purified FBXW7 in vitro (Skp1-FBXW7 complex) | Kd (Skp1-FBXW7 complex) | Compound | Outcome (FBXW7) |
| --- | --- | --- | --- |
| low nanomolar | 16.1 ± 2.1 nM | CC(C)C[C@H](NC(=O)[C@@H]1CCCN1C(=O)[C@H](CCCCN)NC(=O)[C@H](Cc1ccccc1)NC(=O)CNC(=O)[C@@H](N)CO)C(=O)N[C@H](C(=O)N1CCC[C@H]1C(=O)N1CCC[C@H]1C(=O)N[C@H](C(=O)N[C@H](C(=O)N1CCC[C@H]1C(=O)N[C@@H](CC(C)C)C(=O)N[C@@H](CO)C(=O)N1CCC[C@H]1C(=O)O)[C@@H](C)OP(=O)(O)O)[C@@H](C)O)[C@@H](C)OP(=O)(O)O [ETV5] (H-SGFKPL[pT]PPT[pT]PLSP-OH) |  |
| low nanomolar | 29.7 ± 3.2 nM | CC[C@H](C)[C@H](NC(=O)[C@@H]1CCCN1C(=O)[C@@H]1CCCN1C(=O)[C@@H](NC(=O)[C@@H](NC(=O)[C@@H]1CCCN1C(=O)[C@@H]1CCCN1C(=O)[C@@H](NC(=O)[C@H](CC(C)C)NC(=O)[C@H](CO)NC(=O)CNC(=O)[C@H](CO)NC(=O)[C@H](CO)NC(=O)[C@@H](N)Cc1c[nH]cn1)[C@@H](C)OP(=O)(O)O)C(C)C)[C@@H](C)OP(=O)(O)O)C(=O)N[C@H](C(=O)O)[C@@H](C)O [JAZF1] (H-HSSGSL[pT]PPV[pT]PPIT-OH) |  |
| low nanomolar | 2.8 ± 0.2 nM | CSCC[C@H](NC(=O)[C@@H]1CCCN1C(=O)[C@@H](NC(=O)[C@H](CCC(=O)O)NC(=O)[C@@H]1CCCN1C(=O)[C@@H]1CCCN1C(=O)[C@@H](NC(=O)[C@H](Cc1ccc(O)cc1)NC(=O)[C@H](CC(C)C)NC(=O)[C@H](CC(N)=O)NC(=O)[C@H](CC(C)C)NC(=O)[C@H](CCCCN)NC(=O)[C@@H](N)Cc1ccccc1)[C@@H](C)OP(=O)(O)O)[C@@H](C)OP(=O)(O)O)C(=O)N[C@@H](CCC(=O)O)C(=O)N1CCC[C@H]1C(=O)O [KAT6B] (H-FKLNLY[pT]PPE[pT]PMEP-OH) |  |
| low nanomolar | 11 ± 1 nM | CSCC[C@H](NC(=O)CNC(=O)[C@H](Cc1c[nH]cn1)NC(=O)[C@@H](N)[C@@H](C)O)C(=O)N[C@@H](CCSC)C(=O)N[C@@H](CC(C)C)C(=O)N[C@H](C(=O)N1CCC[C@H]1C(=O)N1CCC[C@H]1C(=O)N[C@@H](CO)C(=O)N[C@@H](COP(=O)(O)O)C(=O)N1CCC[C@H]1C(=O)N[C@@H](CC(C)C)C(=O)N[C@@H](CCC(=O)O)C(=O)N[C@@H](CC(C)C)C(=O)O)[C@@H](C)OP(=O)(O)O [KLF4] (H-THGMML[pT]PPS[pS]PLEL-OH) |  |
| low nanomolar | 52.3 ± 2.6 nM | CSCC[C@H](NC(=O)[C@@H]1CCCN1C(=O)[C@@H]1CCCN1C(=O)[C@@H](NC(=O)[C@@H]1CCCN1C(=O)[C@H](CC(N)=O)NC(=O)CNC(=O)[C@@H]1CCCN1C(=O)[C@@H](NC(=O)[C@@H]1CCCN1)C(C)C)[C@@H](C)OP(=O)(O)O)C(=O)N[C@H](C(=O)N1CCC[C@H]1C(=O)NCC(=O)N[C@@H](CO)C(=O)N[C@@H](CO)C(=O)O)[C@@H](C)OP(=O)(O)O [ZMIZ1] (H-PVPGNP[pT]PPM[pT]PGSS-OH) |  |
| low micromolar |  | LGPPPGLLTPPVATELSQN [CCAR2, synthetic peptide of the CCAR2 motif, P + 4 nonphospho class] | Positive (tested positive, where +FBXW7/control protein level ratio was lower than 1) |
